Measured values from PubChem BioAssay (NCI).
Several values for one entry are separate records, joined by “and”; a condition that tells them apart may be missing. Equal entries are not always repeated.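 Briefly, cells in 96-well plates were exposed to five compound concentrations for 48 h, and endpoints were estimated by linear interpolation. Abbreviation: GI50, concentration required for 50% inhibition of growth. The concentration for full growth arrest is given as TGI.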

Key:
Assay in all cases: DTP human tumour cell line panel, 48 h
TK-10 renal = system: TK-10 renal
SN12C renal = system: SN12C renal
SF-268 CNS = system: SF-268 CNS
MOLT-4 leukemia = system: MOLT-4 leukemia
SK-MEL-2 melanoma = system: SK-MEL-2 melanoma
HCC-2998 colon = system: HCC-2998 colon
EKVX NSCLC = system: EKVX NSCLC
A498 renal = system: A498 renal
NCI-H226 lung = system: NCI-H226 lung
CAKI-1 renal = system: CAKI-1 renal

For CC(=O)OC1(C#N)CC2OC1C1N=NN(C(=O)OC(C)(C)C)C21 (stereo not drawn), the TGI (TK-10 renal) was over 100 µM, the TGI (SN12C renal) was over 100 µM and the TGI (SF-268 CNS) was over 100 µM. The TGI (MOLT-4 leukemia) was over 100 µM, the TGI (SK-MEL-2 melanoma) was over 100 µM and the TGI (HCC-2998 colon) was over 100 µM. The TGI (EKVX NSCLC) was over 100 µM, the TGI (A498 renal) was over 100 µM and the TGI (NCI-H226 lung) was over 100 µM. It also gave a TGI (CAKI-1 renal) of over 31.6 µM.
CCN(CC)CCC(=O)N1C/C(=C/c2ccccc2)C(=O)/C(=C\c2ccccc2)C1 gave a TGI (TK-10 renal) of 18.4 µM, a TGI (SN12C renal) of 3.39 µM and a TGI (SF-268 CNS) of 5.4 µM. It also gave a TGI (MOLT-4 leukemia) of 1.33 µM, a TGI (SK-MEL-2 melanoma) of 5.08 µM and a TGI (HCC-2998 colon) of 1.94 µM. For the same compound, the TGI (EKVX NSCLC) was 13.6 µM, the TGI (A498 renal) was 11 µM and the TGI (NCI-H226 lung) was 13.7 µM. It also gave a TGI (CAKI-1 renal) of 5.08 µM.
For CSC1SCC2C(=O)N(C)C(C(C)C)C(=O)OCC(NC(=O)c3cnc4ccccc4n3)C(=O)NC(C)C(=O)N(C)C1C(=O)N(C)C(C(C)C)C(=O)OCC(NC(=O)c1cnc3ccccc3n1)C(=O)NC(C)C(=O)N2C (stereo not drawn), the GI50 (TK-10 renal) was < 0.001 µM and 0.0075 µM, the GI50 (SN12C renal) was under 0.001 µM and the GI50 (SF-268 CNS) was under 0.001 µM. For the same compound, the GI50 (MOLT-4 leukemia) was under 0.001 µM, the TGI (SK-MEL-2 melanoma) was 0.00126 µM and the GI50 (HCC-2998 colon) was under 0.001 µM. For the same compound, the GI50 (EKVX NSCLC) was under 0.001 µM, the GI50 (A498 renal) was under 0.001 µM and the GI50 (NCI-H226 lung) was 0.00325 µM. The GI50 (CAKI-1 renal) was under 0.001 µM.
Nc1nc(CC2(O)CCCCC2)cc(-c2ccccc2)n1 was tested, and the TGI (TK-10 renal) was over 100 µM, the TGI (SN12C renal) was 37.4 µM and the TGI (SF-268 CNS) was over 100 µM. The TGI (MOLT-4 leukemia) was 53.9 µM, the TGI (SK-MEL-2 melanoma) was over 64.8 µM and the TGI (HCC-2998 colon) was over 81 µM. The TGI (EKVX NSCLC) was over 100 µM, the TGI (A498 renal) was over 73.3 µM and the TGI (NCI-H226 lung) was over 61.9 µM. For the same compound, the TGI (CAKI-1 renal) was over 100 µM.
C=C1C(=O)O[C@H]2[C@H]1CC/C(Cn1cc(-c3ccsc3)nn1)=C\CC[C@@]1(C)O[C@@H]21 showed a GI50 (TK-10 renal) of 1.52 µM, a TGI (TK-10 renal) of 3.16 µM and a GI50 (SN12C renal) of 2.45 µM. The TGI (SN12C renal) was 7.33 µM, the GI50 (SF-268 CNS) was 2.53 µM and the TGI (SF-268 CNS) was 8.15 µM. It also gave a GI50 (MOLT-4 leukemia) of 2.59 µM, a TGI (MOLT-4 leukemia) of 6.9 µM and a GI50 (SK-MEL-2 melanoma) of 2.27 µM. It also gave a TGI (SK-MEL-2 melanoma) of 5.34 µM, a GI50 (HCC-2998 colon) of 1.84 µM and a TGI (HCC-2998 colon) of 3.42 µM. The GI50 (EKVX NSCLC) was 2.33 µM, the TGI (EKVX NSCLC) was 7.76 µM and the GI50 (A498 renal) was 2.65 µM. It also gave a TGI (A498 renal) of 12.6 µM, a GI50 (NCI-H226 lung) of 2.09 µM and a TGI (NCI-H226 lung) of 5.51 µM. For the same compound, the GI50 (CAKI-1 renal) was 1.06 µM and the TGI (CAKI-1 renal) was 2.25 µM.
Work on CCCCCCC(O)C(O)CCC(O)C1CCC(CCCCC(O)CC2=CC(C)OC2=O)O1 (stereo not drawn) yielded a GI50 (TK-10 renal) of 22.3 µM, a TGI (TK-10 renal) of over 100 µM and a GI50 (SN12C renal) of 16.2 µM. It also gave a TGI (SN12C renal) of 34 µM, a GI50 (SF-268 CNS) of 20.3 µM and a TGI (SF-268 CNS) of 48.8 µM. The GI50 (MOLT-4 leukemia) was 13.4 µM, the TGI (MOLT-4 leukemia) was 43.9 µM and the GI50 (SK-MEL-2 melanoma) was 17.4 µM. It also gave a TGI (SK-MEL-2 melanoma) of 36 µM, a TGI (HCC-2998 colon) of 34.5 µM and a GI50 (EKVX NSCLC) of 0.291 µM. For the same compound, the TGI (EKVX NSCLC) was 12 µM, the TGI (A498 renal) was 47.6 µM and the GI50 (NCI-H226 lung) was 15.2 µM. For the same compound, the TGI (NCI-H226 lung) was 34.7 µM, the GI50 (CAKI-1 renal) was 17.1 µM and the TGI (CAKI-1 renal) was 41.6 µM.
For CCCC(=O)Nc1c(I)cc(I)c(CC(CC)C(=O)O)c1I (stereo not drawn), the GI50 (TK-10 renal) was over 100 µM, the TGI (TK-10 renal) was over 100 µM and the GI50 (SN12C renal) was over 100 µM. For the same compound, the TGI (SN12C renal) was over 100 µM, the GI50 (SF-268 CNS) was over 100 µM and the TGI (SF-268 CNS) was over 100 µM. The GI50 (MOLT-4 leukemia) was over 100 µM, the TGI (MOLT-4 leukemia) was over 100 µM and the GI50 (SK-MEL-2 melanoma) was over 100 µM. It also gave a TGI (SK-MEL-2 melanoma) of over 100 µM, a GI50 (HCC-2998 colon) of over 100 µM and a TGI (HCC-2998 colon) of over 100 µM. For the same compound, the GI50 (EKVX NSCLC) was over 100 µM, the TGI (EKVX NSCLC) was over 100 µM and the GI50 (A498 renal) was over 100 µM. For the same compound, the TGI (A498 renal) was over 100 µM, the GI50 (NCI-H226 lung) was over 100 µM and the TGI (NCI-H226 lung) was over 100 µM. For the same compound, the GI50 (CAKI-1 renal) was over 100 µM and the TGI (CAKI-1 renal) was over 100 µM.
Work on C=C(C)[C@@H]1CC[C@]2(CN)CC[C@]3(C)[C@H](CC[C@@H]4[C@@]5(C)CCC(N)[C@@](C)(CO)[C@@H]5CC[C@]43C)[C@@H]12 (stereo partly drawn) yielded a GI50 (TK-10 renal) of 1.75 µM, a TGI (TK-10 renal) of 3.22 µM and a GI50 (SN12C renal) of 1.74 µM. For the same compound, the TGI (SN12C renal) was 3.24 µM, the GI50 (SF-268 CNS) was 1.75 µM and the TGI (SF-268 CNS) was 3.45 µM. It also gave a GI50 (MOLT-4 leukemia) of 1.7 µM, a TGI (MOLT-4 leukemia) of 3.58 µM and a GI50 (SK-MEL-2 melanoma) of 1.89 µM. It also gave a TGI (SK-MEL-2 melanoma) of 3.44 µM, a GI50 (HCC-2998 colon) of 1.77 µM and a TGI (HCC-2998 colon) of 3.24 µM. For the same compound, the GI50 (EKVX NSCLC) was 1.55 µM, the TGI (EKVX NSCLC) was 3.05 µM and the GI50 (A498 renal) was 1.44 µM. For the same compound, the TGI (A498 renal) was 2.79 µM, the GI50 (NCI-H226 lung) was 1.94 µM and the TGI (NCI-H226 lung) was 4.09 µM. The GI50 (CAKI-1 renal) was 1.76 µM and the TGI (CAKI-1 renal) was 3.2 µM.
CC(C)C1NC(=O)[C@H](C)OC(=O)[C@@H](C(C)C)NC(=O)[C@@H](C)OC(=O)C(C(C)C)NC(=O)[C@H](C)OC1=O (stereo partly drawn) showed a TGI (TK-10 renal) of over 100 µM, a TGI (SN12C renal) of over 100 µM and a TGI (SF-268 CNS) of over 100 µM. It also gave a TGI (MOLT-4 leukemia) of over 100 µM, a TGI (SK-MEL-2 melanoma) of over 100 µM and a TGI (HCC-2998 colon) of over 100 µM. For the same compound, the TGI (EKVX NSCLC) was over 100 µM, the TGI (A498 renal) was over 100 µM and the TGI (NCI-H226 lung) was over 100 µM. For the same compound, the TGI (CAKI-1 renal) was over 100 µM.
Compound N/C(=N\N=C\c1ccc(O)c(O)c1)NO has a TGI (TK-10 renal) of over 100 µM, a TGI (SN12C renal) of over 100 µM and a TGI (SF-268 CNS) of over 100 µM. For the same compound, the TGI (MOLT-4 leukemia) was over 100 µM, the TGI (SK-MEL-2 melanoma) was over 100 µM and the TGI (HCC-2998 colon) was over 100 µM. It also gave a TGI (EKVX NSCLC) of over 100 µM, a TGI (A498 renal) of over 100 µM and a TGI (NCI-H226 lung) of over 100 µM. The TGI (CAKI-1 renal) was over 100 µM.
COc1ccc(C[C@H]2NC[C@H](O)[C@H]2OC(C)=O)cc1 was tested, and the TGI (TK-10 renal) was 0.397 µM, the TGI (SN12C renal) was 0.253 µM and the TGI (SF-268 CNS) was 1.03 µM. For the same compound, the TGI (MOLT-4 leukemia) was 0.0642 µM, the TGI (SK-MEL-2 melanoma) was 0.398 µM and the TGI (HCC-2998 colon) was 0.0862 µM. It also gave a TGI (EKVX NSCLC) of 0.344 µM, a TGI (A498 renal) of 0.32 µM and a TGI (NCI-H226 lung) of 0.242 µM. It also gave a TGI (CAKI-1 renal) of 0.06 µM.
For NC(N)=NC(N)=Nc1ccc(S(N)(=O)=O)cc1, the TGI (TK-10 renal) was over 100 µM, the TGI (SN12C renal) was over 100 µM and the TGI (SF-268 CNS) was over 100 µM. For the same compound, the TGI (MOLT-4 leukemia) was over 100 µM, the TGI (SK-MEL-2 melanoma) was over 100 µM and the TGI (HCC-2998 colon) was over 100 µM. For the same compound, the TGI (EKVX NSCLC) was over 100 µM, the TGI (A498 renal) was over 100 µM and the TGI (NCI-H226 lung) was over 100 µM. It also gave a TGI (CAKI-1 renal) of over 100 µM.
COc1ccc(-c2cc(-c3ccc(Cl)cc3)nc(SCCCCCCC(=O)NO)n2)cc1 showed a GI50 (TK-10 renal) of 2.12 µM, a TGI (TK-10 renal) of over 50 µM and a GI50 (SN12C renal) of 1.74 µM. It also gave a TGI (SN12C renal) of 8.85 µM, a GI50 (SF-268 CNS) of 1.79 µM and a TGI (SF-268 CNS) of 6.54 µM. For the same compound, the GI50 (MOLT-4 leukemia) was 0.79 µM, the TGI (MOLT-4 leukemia) was 2.93 µM and the GI50 (SK-MEL-2 melanoma) was 5.73 µM. For the same compound, the TGI (SK-MEL-2 melanoma) was over 50 µM, the GI50 (HCC-2998 colon) was 2.01 µM and the TGI (HCC-2998 colon) was 8.37 µM. It also gave a GI50 (EKVX NSCLC) of 2.61 µM, a TGI (EKVX NSCLC) of 22.3 µM and a GI50 (A498 renal) of 1.28 µM. For the same compound, the TGI (A498 renal) was 3.8 µM, the GI50 (NCI-H226 lung) was 1.9 µM and the TGI (NCI-H226 lung) was 23.9 µM. The GI50 (CAKI-1 renal) was 1.32 µM and the TGI (CAKI-1 renal) was 7.47 µM.
